Reference: patent publication US12628822B2, “Plant pathogen defence elicitors” (UNIVERSITÉ LIBRE DE BRUXELLES, priority 2020, dated 2026)

How the values were obtained:
oxidative burst = test: Oxidative burst detection (DAB, NBT, luminol-based assays); assay type: in vivo, Arabidopsis thaliana
Description: Hydrogen peroxide was assayed in both in vitro-growth and in soil-growth Arabidopsis plants. In situ detection of H2O2 was performed following the protocol described by Daudi and O'Brien (Detection of Hydrogen Peroxide by DAB Staining in Arabidopsis Leaves. Bio Protoc. 2012, vol. 2(18), e263). Briefly, 5-week-old Col-O plants leaves were droplet-treated (40-50 μl drops per leaf) with indicated compounds. At 24 h after treatment four rosette leaves from five independent plants were gently vacuum-infiltrated (5 min) with 1 mg ml^−1 3,3′-diaminobenzidine (DAB) dissolved in 10 mM sodium phosphate buffer and 0.05% v/v Tween 80. The staining reaction was terminated 5 h after DAB infiltration, and leaves were fixed in ethanol:glycerol:acetic acid 3:1:1. Chlorophyll was removed by several washing steps with 70% v/v ethanol and pictures were token with a stereomicroscope (Discovery V8, Zeiss).
Elicitor-induced H2O2 was also detected by luminol-peroxidase-based assay as described by Albert et al. (Chemiluminescence Detection of the Oxidative Burst in Plant Leaf Pieces. Bio-protocol 2015, vol. 5(6), e1423). Briefly, twenty leaves from 10 independent 4-5-week-old Col-0 plants were cut and incubated in ddH2O overnight. Time course luminescence was evaluated using The SpectraMax iD3 Multi-Mode Microplate Reader (Molecular devices, San Jose, CA, USA) with an integration time per well=1000 ms. […]

Botrytis cinerea = test: B. cinerea inoculation of Arabidopsis leaves: necrotic lesion area and in planta growth; assay type: in vivo
Description: For “in planta” growth test of Botrytis cinerea and histochemical assays, five-week-old Col-0 plants were germinated in soil and grown in controlled chamber ( 8/16 h light/dark at 22/20° C. day/night) with a relative humidity equal to 70%. Treatments were performed by applying 40-50 μl of fresh-prepared and filtered solution per leaf.
Botrytis cinerea (strain B05.10, from the INRA/IJPB Institute, Versailles, France) was grown on potato dextrose agar medium at 21° C., with a photoperiod of 12 h light/12 h dark. Leaves were inoculated with two 5-μL droplets of B. cinerea spores (5×10^5 spores ml-1). At the indicated time points, genomic DNA from whole leaves was extracted following the modified protocol of Edwards et al. (A simple and rapid method for the preparation of plant genomic DNA for PCR analysis. Nucl. Acid. Res. 1991, vol. 19, 13491991) and fungal biomass was quantified as described by Gachon and Saindrenan (Real-time PCR monitoring of fungal development in Arabidopsis thaliana infected by Alternaria brassicicola and Botrytis cinerea. Plant Physiol Biochem. 2004, vol. 42, 367-371).
Three days after fungus inoculation, the areas of the developing necrotic lesions were analysed by ImageJ software and the B. cinerea “in planta” growth was evaluated through qPCR. […]

SMILES: OC[C@H]1O[C@@H](O[C@H]2[C@H](O)[C@@H](O)[C@H](O)O[C@@H]2CO)[C@H](O)[C@@H](O)[C@@H]1O [Cellobiose, β-D-glucopyranosyl(1→4)D-glucopyranose]
- short-term extracellular H2O2 production (luminol-based assay) (oxidative burst; 14-day old plants): no H2O2 production was detected
- in situ production of H2O2 and O2− (DAB and NBT assays) (oxidative burst; 24 h after treatments, 5-week old plants): no measurable production
- reduction of average sizes of necrotic lesions compared with untreated leaves (Botrytis cinerea; 100 μM pre-treatment 24 h before inoculation, three days after inoculation): a little protection
- reduction of B. cinerea in planta growth (fungus biomass, qPCR) (Botrytis cinerea; 100 μM pre-treatment, 3 days after infection): slight reduction
